The text below walks through data of patent US6635629B2, “3-nitrogen-6,7-dioxygen steroids and uses related thereto” (Inflazyme Pharmaceuticals Ltd., priority 2000, dated 2003).

pIC50: −log10 of the molar value. ≈ marks a conversion by molar mass, not a printed value. Where “and” joins values, the source holds several entries; their conditions need not be identical. Equal values may be shown once. Bounds are passed on as bounds.

Data set [1] relates to sensitized Brown Norway rats. The data set is described as follows: Ovalbumin-induced accumulation of inflammatory cells in lung lavage fluid of sensitized Brown Norway rats. It is filed as in vivo, rat. The following applies: p.o. As for the experimental part: The ability of a compound to inhibit the allergen-induced accumulation of inflammatory cells such as eosinophils and neutrophils in the lavage fluid obtained from sensitized animals is indicative of that compound's anti-asthma activity. […] The test is conducted as follows.
Male Brown Norway rats are sensitized to ovalbumin by single intraperitoneal injection of 1 mg ovalbumin adsorbed to 100 mg A(OH)3 (alum) in 1 ml sterile saline (saline control rats receive only sterile saline) on day 1, and allowed to sensitize until day 21. […] Rats are challenged with 0.5% ovalbumin in saline generated using a Devillbis nebulizer for 60 min on day 21.
Forty-eight hrs after challenge, animals are sacrificed with an overdose of intraperitoneally-delivered sodium pentobarbitol and the lungs are lavaged with cold 2×7 ml phosphate buffered saline. The recovered lavage fluid is placed on ice. The bronchoalveolar lavage fluid is centrifuged and the supernatant removed. The pellet is resuspended in phosphate buffered saline at 4° C. Cytospins are prepared and stained for differentiation and enumeration of cell types.
Test compound was administered in 300 μl corn oil (Tables 7 and 8) or water (Table 9), which were used as vehicles. Control animals received 300 μl corn oil or water alone, i.e., no drug. […] A negative value in Table 7, 8, or 9 indicates an exacerbation of the effect over the control animal.

Data set [2] is described as follows: Pharmacokinetics in the rat. To be noted: plasma; for bioavailability: po. The data set is classed as in vivo.
The nature of data set [3]: Pharmacokinetics in the monkey. To be noted: plasma; for bioavailability: po. The data set is classed as in vivo.
A short description of another data set: physchem. To be noted: water.
Data set [4] concerns rat mast cell line (RBL-2H3). The data set is described as follows: Antigen-induced release of hexosaminidase from a rat mast cell line (RBL-2H3). The data set is classed as cell-based. To be noted: inhibition of DNP-HSA antigen-induced hexosaminidase release; tested at 0.3, 3, 10 and 30 μM; read-out: Hex IC50. The protocol: The anti-allergic effects of a compound of the present invention was evaluated by measuring its effect on antigen-induced secretion of hexosaminidase from a passively sensitized rat mast cell line. The ability of a test compound to inhibit the release of mast cell granule contents, e.g., histamine and hexosaminidase, is indicative of the anti-allergy and/or anti-asthma activity of the compound. Hexosaminidase is released from the mast cell granule along with histamine and other mediators during antigen challenge. The test is performed as follows.
RBL-2H3 cells are grown in culture and passively sensitized for 1 hour at 37° C. to dinitrophenol (DNP) using anti-human-DNP (IgE). Cells are incubated with test compound for 30 minutes at 37° C. and stimulated with 0.5 μg/ml DNP-HSA (antigen) for 30 minutes. Aliquots of the supernatant are removed and used to measure the amount of hexosaminidase released during challenge with the antigen. […] The effect of each test compound is determined as a percentage of the antigen-induced response (minus background release) obtained in the presence of DMSO alone. These values are used to determine the degrees of inhibition of antigen-induced hexosaminidase release from the cells.

The subject of a further data set is Jurkat clone E6.1 cells. The data set is described as follows: Antigen-induced (anti-CD3 mAb) calcium flux in Jurkat clone E6.1 cells. The data set is classed as cell-based. The following applies: 20 μM; anti-CD3 mAb 4 μg/mL; Fura 2AM. The text has this:
Elevation of cytoplasmic calcium concentration is a common and crucial event which follows the activation of many types of cell surface receptors. Increases in intracellular calcium that occur following agonist activation of inositol lipid hydrolysis are the results of calcium release from the endoplasmic reticulum and the influx of calcium through the plasma membrane. Increases in cytosolic calcium concentration are involved in many important cellular responses in the inflammatory process including adhesion, motility, gene expression, proliferation, and degranulation. Changes in intracellular calcium centrations can affect both short and long term cellular responses. An assay method to evaluate a test compound's impact on calcium flux is provided as follows.
The resulting supernatants are discarded and each pellet is washed in 10 mL HBSS. Cell suspensions are accumulated and centrifuged for 5 minutes at 900 RPM to form a cell pellet. The resulting supernatant is discarded and the pellet is resuspended in HBSS at 1×10^7 cells/mL. The cell suspension is transferred to a 20 mm petri dish and incubated at 37° C., 5% CO2 for 20 minutes.
One volume of Fura 2AM is mixed to one volume of detergent Pluronic F127. Cells are labeled with 4 μL of probe solution to each mL of cell suspension. The petri dish is wrapped in aluminum foil to protect from light and placed on a plate shaker for 30 minutes at room temperature.
The following steps are done in the laminar flow hood with the fluorescent lights turned off. The petri dish is removed from the shaker and the labeled cell suspension is transferred to a 15 mL conical tube and washed twice with HBSS as above. The cell pellet is resuspended in 12 mL HBSS and left wrapped in foil for 30 minutes at room temperature. The labeled cell suspension is aliquoted (100 μL/well) into a Dynex 96 well white opaque tissue culture plate. […] Selected compounds were tested for dose related activity. Test samples and activator (anti—CD3 mAb at final concentration of 4 μg/mL, PharMingen) are added manually (50 μL), such that the minimum time to acquire the first data point after stimulation is approximately 30 seconds. The calcium influx response to anti-CD3 mAb is measured as an “end point” assay. The entire plate is read in 100 seconds using a kinetic of 1 second per well.
The plate is read before the addition of anti-CD3 to monitor non-specific effect of samples/drugs. Fluorescence emission is measured at 510 nm with excitation alternating between 340 and 380 every second using an excitation/emission filter pair. Data from these dual wavelengths are represented as a ratio of 2 excitations wavelengths. This ratio is independent of intracellular dye and cell concentrations, enabling real comparison between experiments.

A short description of data set [5]: Metabolic stability in human liver S9 fractions. It is filed as in vitro ADME. To be noted: 10 μM, 37° C., relative to 0 minute incubation; for % remaining after 15 min: 15 min incubation; for % remaining after 30 min: 30 min incubation. An excerpt: The therapeutic effectiveness of a test compound can be often directly related to its metabolic stability in vivo. The majority of known, marketed drugs are metabolized by a group of enzymes known as P450 enzymes. The S9 fraction of human liver contains all the P450 enzymes and also cytoplasmic enzymes that may be involved in the metabolism of new chemical entities. Metabolism in vitro using human S9 fractions is a standard assay to evaluate relative metabolic stability of new compounds. The test is performed as follows.
Reagents are thawed on ice and combined to make up a Master Mix as follows: Potassium phosphate (100 mM, pH 7), G6P (0.25 mM), G6PDH (2 U/ml), NADPH (1 mM), UDP (0.25 mM), APPS (0.25 mM), and S9 fraction (2 mg/ml). A volume of 498 μl of the Master mix is dispensed into each microcentrifuge tube. A volume of 2 μl of 2.5 mM test compound (final concentration of 10 μM) is dispensed into the center of the lid of the appropriate tube, and the lids gently closed to prevent mixing. Synchronous combination of test compound and master mix is achieved by simultaneous ten times inversion of the tubes, which are then incubated at 37° C. and shaken at 150 rpm for the appropriate incubation times. While incubation is in progress, all 0 time samples are mixed individually by three times inversion followed by the immediate addition of 500 μl ice cold acetonitrile with three times inversion to stop the reaction. Immediately after each 15 minutes and 30 minutes incubation is complete, ice cold acetonitrile is added to each tube and the tubes mixed by three times inversion. All sample tubes are incubated at −80° C. for a minimum of 15 minutes, thawed and remixed by inversion. Aliquots of 650 μl are transferred to Chromatographic Specialties micro-spin filter system tubes (0.2 μm nylon membrane, C618505) and centrifuged at 13,000 rpm for 48 seconds. The sample filtrates are stored at −80° C.
Sample filtrates are analyzed on LCMS, and percent remaining after 15 and 30 minute incubation is calculated relative to the 0 minute incubation.
The metabolic stability of various compounds are summarized in Table 10 as the percent remaining after 15 or 30 minutes incubation with human liver S9 fractions.

The mark [6] stands for this setting: 0.03 mg/kg, 4 days qd, water vehicle.
Setting [7] is: 0.1 mg/kg, 4 days qd, water vehicle.
Setting [8] is: 0.3 mg/kg, 4 days qd, water vehicle.
[9] abbreviates: 1 mg/kg, 4 days qd, water vehicle.
[10] abbreviates: 5 mg/kg/day for 4 days, corn oil vehicle, relative to control animals.
[11] abbreviates: 1 mg/kg/day for 4 days, corn oil vehicle, relative to control animals.

Broadly, the half-life is the time needed for the level to fall by half in the phase considered. By bioavailability is commonly meant the share of a dose that reaches the circulation, judged against a reference dose that is usually intravenous. Broadly, the solubility is how much of the substance goes into solution per volume. For the compound `C/C=C1/CCC2C3C(CC[C@]12C)[C@@]1(C)CC[C@H](N)CC1[C@@H](O)[C@@H]3O` (stereo partly shown) [Compound 28], the “% inhibition of eosinophils” value in data set [1] (setting [6]) worked out at 5%; in data set [1] (setting [7]) it was 29%; in data set [1] (setting [8]) it was 71%; in data set [1] (setting [9]), 60%; in data set [1] (setting [10]), 85%. For the same compound, the “% inhibition of lymphocytes” value in data set [1] (setting [6]) was −5%; in data set [1] (setting [7]) it was 50%; in data set [1] (setting [8]) it was 85%; in data set [1] (setting [9]), 70%; in data set [1] (setting [10]), 124%. In addition, the “% inhibition of neutrophils” value in data set [1] (setting [6]) is given as −26%; in data set [1] (setting [7]), −10%; in data set [1] (setting [8]), 66%; in data set [1] (setting [9]), 41%; in data set [1] (setting [10]), 87%. In addition, the half-life in data set [2] was 7.5 h; in data set [3], 15 h. In addition, the bioavailability in data set [2] was around 100%; in data set [3], 25 to 30%. The compound also came in with a solubility in the data set “physchem” (solubility at room temperature) of around 30 mg/mL (≈ 90 mM).
A word on the pIC50: it is the IC50 on a negative log10 scale, so that one unit is a factor of ten. In the case of `C=C1CCC2C3C(CC[C@]12C)[C@@]1(C)CC[C@H](N)CC1[C@@H](O)[C@@H]3O` (stereo partly shown) [Compound 89], the pIC50 in data set [4] was 4.94. The “Calcium (% inhibition at 20 μM)” value in the data set with Jurkat clone E6.1 cells came out at 15.0%. Further, the “% inhibition of eosinophils” value in data set [1] (setting [7]) is given as 35%; in data set [1] (setting [8]) it was 80%; in data set [1] (setting [9]) it was 71%; in data set [1] (setting [10]) it was 57%. For the same compound, the “% inhibition of lymphocytes” value in data set [1] (setting [7]) was 2%; in data set [1] (setting [8]) it was 70%; in data set [1] (setting [9]), 6%; in data set [1] (setting [10]) it was 64%. Further, the “% inhibition of neutrophils” value is 25% in data set [1] (setting [7]), 72% in data set [1] (setting [8]), 66% in data set [1] (setting [9]) and 60% in data set [1] (setting [10]). Also, the half-life is 7.5 h in data set [2] and 15 h in data set [3]. Besides, the bioavailability in data set [2] is around 100%; in data set [3], 25 to 30%. For the same compound, the solubility in the data set “physchem” (solubility at room temperature) was around 30 mg/mL (≈ 93.9 mM); in the data set “physchem” (solubility in water), above 100 mg/mL.
As for `COc1ccc(CNC2CCC3(C)C(C2)C(O)C(O)C2C4=C(CCC23)C(C)(C)CC4)cc1OC.Cl` (stereo not shown) [Compound 142], the pIC50 in data set [4] was 4.80. For the same compound, in the data set with Jurkat clone E6.1 cells, the “Calcium (% inhibition at 20 μM)” value turned out to be 13.8%. Moreover, in data set [1] (setting [11]), the “% inhibition of eosinophils” value was −131%, the “% inhibition of lymphocytes” value was −42% and the “% inhibition of neutrophils” value is recorded as −1%. In addition, in data set [5], the “% remaining after 15 min” value amounted to 80 ± 11% and the “% remaining after 30 min” value was 55 ± 2%.
`CCC1(C)CCC2=C1CCC1C2C(O)C(O)C2CC(N)CCC21C.Cl` (stereo not shown) [Compound 143]: in data set [4], the pIC50 is 5.07. For the same compound, in the data set on Jurkat clone E6.1 cells, the “Calcium (% inhibition at 20 μM)” value amounted to 22.6%. In data set [1] (setting [7]), the “% inhibition of eosinophils” value is 28%, the “% inhibition of lymphocytes” value is −43% and the “% inhibition of neutrophils” value is reported as 57%. Further, in data set [1] (setting [8]), the “% inhibition of eosinophils” value was determined as 29%, the “% inhibition of lymphocytes” value is recorded as −37% and the “% inhibition of neutrophils” value was 25%. Further, in data set [1] (setting [9]), the “% inhibition of eosinophils” value came out at 48%, the “% inhibition of lymphocytes” value was −22% and the “% inhibition of neutrophils” value came out at 64%. In data set [5], the “% remaining after 15 min” value is 100% and 100 ± 3%; the “% remaining after 30 min” value is 100% and 99 ± 10%.
`CCC1(C)CCC2=C1CCC1C2C(O)C(O)C2CC(NCc3ccccc3)CCC21C.Cl` (stereo not shown) [Compound 146]: in data set [4], the pIC50 was 5.05. Also, the “Calcium (% inhibition at 20 μM)” value in the data set on Jurkat clone E6.1 cells stood at 41.7%. Further, in data set [1] (setting [11]), the “% inhibition of eosinophils” value is reported as 8%, the “% inhibition of lymphocytes” value was −27% and the “% inhibition of neutrophils” value is listed as 24%. In data set [5], the “% remaining after 15 min” value was 82 ± 6% and the “% remaining after 30 min” value is recorded as 63 ± 9%.
